Results as given in patent publication US7893031B2, “Neuronal differentiation inhibitor peptide and use thereof” (Toagosei Co., Ltd., priority 2005, dated 2011).
No end group written: not given here.

System: adipose stem cells procured from humans
Test: Evaluation of neuronal differentiation inhibitor activity of the synthetic peptides (immunostaining for MAPs and NeuN neuron markers, confocal laser microscopy)
Assay type: cell-based
Conditions: culture of human adipose stem cells, 24 hours after peptide addition; for degree of neuronal differentiation (neuron markers MAPs and NeuN) when added together with VHL peptide: sample peptide added together with VHL peptide (comparative sample 1), each about 100 ng/mL
Protocol: Each sample obtained in example 1 was analyzed for the neuronal differentiation inhibitor activity.
In particular, each sample peptide together with the peptide of comparative sample 1 (hereinafter referred to as VHL peptide) was added to and incubated in a culture of adipose stem cells procured from humans. The addition concentration of each peptide was about 100 ng/mL. For comparison, a culture containing VHL peptide alone was incubated in a similar manner.
At 24 hours after peptide addition, evaluation was carried out by a standard immune antibody procedure. Specifically, MAPs ([…]) and NeuN (neuronal nuclei) were added as neuron markers, and the degree of neuronal differentiation was evaluated by confocal laser microscopy. MAPs is a marker that can stain (detect) broadly, from relatively immature neurons to mature neurons. NeuN is a marker that can specifically stain (detect) mature neurons.

Substance	degree of neuronal differentiation (neuron markers MAPs and NeuN) when added together with VHL peptide	degree of neuronal differentiation (neuron markers MAPs and NeuN) (VHL peptide alone, about 100 ng/mL)
YARAAARQARA-SLQTLCEISLMRNHS (YARAAARQARASLQTLCEISLMRNHS; not fully specified (C-terminus); printed as YARAAARQARA-SLQTLCEISLMRNHS) [Sample 3, PTD4 domain plus 15 N-terminal residues of the BC-box of S. cerevisiae elongin-A]	no significant neuronal differentiation was observed	
YARAAARQARA-TLHQQCIRVLKNNID (YARAAARQARATLHQQCIRVLKNNID; not fully specified (C-terminus); printed as YARAAARQARA-TLHQQCIRVLKNNID) [Sample 1, PTD4 domain plus 15 N-terminal residues of the BC-box of human elongin-A]	no significant neuronal differentiation was observed	
YARAAARQARA-TLKERCLQVVRSLVK (YARAAARQARATLKERCLQVVRSLVK) [VHL peptide, reference compound]		significant neuronal differentiation
YARAAARQARA-TLVSLCQTVLMSHID (YARAAARQARATLVSLCQTVLMSHID; not fully specified (C-terminus); printed as YARAAARQARA-TLVSLCQTVLMSHID) [Sample 2, PTD4 domain plus 15 N-terminal residues of the BC-box of C. elegans elongin-A]	no significant neuronal differentiation was observed	
